Reference: US9254262B2, “Dosage and formulation” (Almirall, S.A., priority 2008, dated 2016)

Test system: Patients with moderate to severe stable COPD
Assay: 4-week randomized once-daily inhaled treatment in COPD patients, spirometry (FEV1) and tolerability
Assay type: in vivo, human
Experimental: Methods: Patients with moderate to severe stable COPD were randomized to receive double-blind, once-daily treatment with aclidinium (25, 50, 100, 200, or 400 μg), placebo, or open-label tiotropium 18 μg for 4 weeks. Spirometric measurements were performed at 22-24 h after the first dose and then at weekly intervals, and from 0.5-6 h post-administration on Day 1 and at Week 4 (Day 29).
Results: The ITT population included 460 patients.
Mean change from baseline in trough FEV1 on Day 29

[1] = 25-400 μg once daily for 4 weeks, COPD patients

Row | SMILES | Effect on ECG, laboratory parameters or adverse events [1] | Tolerability [1] | Effect on trough FEV1 on Day 29 (dose dependence) (25-400 μg once daily, ITT population 460 patients) | Bronchodilatory effect compared with open-label tiotropium 18 μg (aclidinium 200 and 400 μg) | Bronchodilatory effect during the first 6 h post-dose on Day 29 versus Day 1 (all doses) | Duration of bronchodilation (once-daily dosing, COPD patients) | Mean change from baseline in trough FEV1 on Day 29 (Mean Δ) (tiotropium 18 μg once daily, open-label, 4 weeks, COPD patients, *p < 0.05 vs placebo)
1 | O=C(O[C@H]1C[N+]2(CCCOc3ccccc3)CCC1CC2)C(O)(c1cccs1)c1cccs1.[Br-] [Aclidinium, 3(R)-(2-hydroxy-2,2-dithien-2-ylacetoxy)-1-(3-phenoxypropyl)-1-azoniabicyclo[2.2.2]octane bromide] | no dose-dependent effect | well tolerated | dose-dependently increased | comparable bronchodilatory effects | comparable to that on Day 1 | sustained bronchodilation over 24 h | –
2 | C[N+]1(C)[C@@H]2C[C@@H](OC(=O)C(O)(c3cccs3)c3cccs3)C[C@H]1[C@@H]1O[C@@H]12 [Tiotropium, reference compound] | – | – | – | – | – | – | 161* ml
